In patent publication US20260355196A1, “INHIBITORS AND DEGRADERS OF PIP4K PROTEIN” (Larkspur Biosciences, Inc., priority 2023, published 2026) one finds IC50 data, which are given here for 31 compounds.

pIC50: −log10 of the molar value.

The target in this assay is T1, PIP4K2C (Homo sapiens, UniProt Q8TBX8).
T1 sequence (Q8TBX8 1-421): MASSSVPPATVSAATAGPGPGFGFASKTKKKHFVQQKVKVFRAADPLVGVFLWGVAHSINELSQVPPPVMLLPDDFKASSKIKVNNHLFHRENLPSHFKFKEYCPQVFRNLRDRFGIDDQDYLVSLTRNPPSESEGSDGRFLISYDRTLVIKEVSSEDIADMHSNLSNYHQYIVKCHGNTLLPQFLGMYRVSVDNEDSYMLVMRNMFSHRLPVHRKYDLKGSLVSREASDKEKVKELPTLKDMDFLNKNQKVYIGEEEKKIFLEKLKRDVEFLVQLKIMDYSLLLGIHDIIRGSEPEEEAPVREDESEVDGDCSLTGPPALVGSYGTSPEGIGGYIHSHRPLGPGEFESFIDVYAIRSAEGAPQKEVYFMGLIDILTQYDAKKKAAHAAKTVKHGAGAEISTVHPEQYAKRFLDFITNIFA
The assay is described as follows: Enzyme Binding Assay (KINOMEscan): active site-directed competition binding to an immobilized ligand. On the set-up: purchased Eurofins DiscoverX, San Diego, CA 87-0007-1094. To be noted: 11-point dose response, duplicate, top concentration 5 micromolar; read-out: Pip4k2c Kd: IC50. How it is done: Example B-1: Enzyme Binding Assays (KINOMEscan)
PIP4K2C binding constants disclosed herein were determined using the proprietary Human PIP4K2C binding assay (Catalog number 87-0007-1094, Eurofins DiscoverX, San Diego, CA). This assay measures active site-directed competition binding to an immobilized ligand (see https://doi.org/10.1038/nbt1068, herein incorporated by reference in its entirety). Experiments were conducted using an 11-point dose response curve, in duplicate, with a top starting concentration of 5 micromolar; the Levenberg-Marquardt algorithm was used to fit a Hill equation to dose-response data to calculate IC50 values (see Table 5).
In general, pIC50 refers to −log10 of the IC50, conventionally taken in molar units. For `O=C(CC1CCNCC1)N1CCC(Nc2ncc(Cl)c(-c3cccc(-c4ccccc4)c3)n2)CC1` [Compound 5, 1-(4-((4-([1,1′-biphenyl]-3-yl)-5-chloropyrimidin-2-yl)amino)piperidin-1-yl)-2-(piperidin-4-yl)ethan-1-one], the pIC50 was greater than 6.30.

For the compound `CC(=O)N1CCC(CC(=O)N2CCC(Nc3ncc(Cl)c(-c4cccc(-c5ccccc5)c4)n3)CC2)CC1` [Compound 6, 1-(4-((4-([1,1′-biphenyl]-3-yl)-5-chloropyrimidin-2-yl)amino)piperidin-1-yl)-2-(1-acetylpiperidin-4-yl)ethan-1-one], the pIC50 is greater than 6.30. Regarding `O=C(CCC1CCNCC1)N1CCC(Nc2ncc(Cl)c(-c3cccc(-c4ccccc4)c3)n2)CC1` [Compound 7, 1-(4-((4-([1,1′-biphenyl]-3-yl)-5-chloropyrimidin-2-yl)amino)piperidin-1-yl)-3-(piperidin-4-yl)propan-1-one], the pIC50 was greater than 6.30. The result for `CC(=O)N1CCC(CCC(=O)N2CCC(Nc3ncc(Cl)c(-c4cccc(-c5ccccc5)c4)n3)CC2)CC1` [Compound 8, 1-(4-((4-([1,1′-biphenyl]-3-yl)-5-chloropyrimidin-2-yl)amino)piperidin-1-yl)-3-(1-acetylpiperidin-4-yl)propan-1-one] reads greater than 6.30; that for `CN1CCC(CC(=O)N2CCC(Nc3ncc(Cl)c(-c4cccc(-c5ccccc5)c4)n3)CC2)CC1` [Compound 9, 1-(4-((4-([1,1′-biphenyl]-3-yl)-5-chloropyrimidin-2-yl)amino)piperidin-1-yl)-2-(1-methylpiperidin-4-yl)ethan-1-one], greater than 6.30; that for `CN1CCC(CCC(=O)N2CCC(Nc3ncc(Cl)c(-c4cccc(-c5ccccc5)c4)n3)CC2)CC1` [Compound 10, 1-(4-((4-([1,1′-biphenyl]-3-yl)-5-chloropyrimidin-2-yl)amino)piperidin-1-yl)-3-(1-methylpiperidin-4-yl)propan-1-one], greater than 6.30. The result for `O=C(C1CCC2(CCNCC2)CC1)N1CCC(Nc2ncc(Cl)c(-c3cccc(-c4ccccc4)c3)n2)CC1` [Compound 11, (4-((4-([1,1′-biphenyl]-3-yl)-5-chloropyrimidin-2-yl)amino)piperidin-1-yl)(3-azaspiro[5.5]undecan-9-yl)methanone] reads greater than 6.30. With `CN1CCC2(CCC(C(=O)N3CCC(Nc4ncc(Cl)c(-c5cccc(-c6ccccc6)c5)n4)CC3)CC2)CC1` [Compound 12, (4-((4-([1,1′-biphenyl]-3-yl)-5-chloropyrimidin-2-yl)amino)piperidin-1-yl)(3-methyl-3-azaspiro[5.5]undecan-9-yl)methanone], the pIC50 was greater than 6.30. On to `CC(=O)N1CCC2(CCC(C(=O)N3CCC(Nc4ncc(Cl)c(-c5cccc(-c6ccccc6)c5)n4)CC3)CC2)CC1` [Compound 13, 1-(9-(4-((4-([1,1′-biphenyl]-3-yl)-5-chloropyrimidin-2-yl)amino)piperidine-1-carbonyl)-3-azaspiro[5.5]undecan-3-yl)ethan-1-one], for which the pIC50 is greater than 6.30. Turning to `CN1CC(Nc2ncc(Cl)c(-c3cccc(-c4ccccc4)c3)n2)CCC1=O` (stereo not shown) [Compound 14, 5-((4-([1,1′-biphenyl]-3-yl)-5-chloropyrimidin-2-yl)amino)-1-methylpiperidin-2-one], the negative-log IC50 (pIC50) was greater than 6.30.

For the compound `O=C1CC(Nc2ncc(Cl)c(-c3cccc(-c4ccccc4)c3)n2)CCN1` (stereo not shown) [Compound 15, 4-((4-([1,1′-biphenyl]-3-yl)-5-chloropyrimidin-2-yl)amino)piperidin-2-one], the negative-log IC50 (pIC50) was greater than 6.30.

On to `CN1CCC(Nc2ncc(Cl)c(-c3cccc(-c4ccccc4)c3)n2)CC1=O` (stereo not shown) [Compound 16, 4-((4-([1,1′-biphenyl]-3-yl)-5-chloropyrimidin-2-yl)amino)-1-methylpiperidin-2-one], for which the pIC50 is greater than 6.30. With `O=C1CCC(Nc2ncc(Cl)c(-c3cccc(-c4ccccc4)c3)n2)CN1` (stereo not shown) [Compound 17, 5-((4-([1,1′-biphenyl]-3-yl)-5-chloropyrimidin-2-yl)amino)piperidin-2-one], the negative logarithm of the IC50 (pIC50) was greater than 6.30.

On to `CC(=O)N1CCC[C@H](Nc2ncc(Cl)c(-c3cccc(-c4ccccc4)c3)n2)C1` [Compound 18, (S)-1-(3-((4-([1,1′-biphenyl]-3-yl)-5-chloropyrimidin-2-yl)amino)piperidin-1-yl)ethan-1-one], for which the pIC50 was greater than 6.30.

As for `NC(=O)[C@H]1CC[C@H](Nc2ncc(Cl)c(-c3cccc(-c4ccccc4)c3)n2)CC1` [Compound 19, trans-4-((4-([1,1′-biphenyl]-3-yl)-5-chloropyrimidin-2-yl)amino)cyclohexane-1-carboxamide], the negative-log IC50 (pIC50) is greater than 6.30.

With `CC(=O)N1CCC[C@H](Nc2ncc(Cl)c(N3CCC(c4ccccc4)C3)n2)C1` (stereo partly drawn) [Compound 20, 1-((3S)-3-((5-chloro-4-(3-phenylpyrrolidin-1-yl)pyrimidin-2-yl)amino)piperidin-1-yl)ethan-1-one], the pIC50 is 5.30 to 6.00. The figure for `CC(=O)N1CCCC(Nc2ncc(Cl)c(-c3cccc(-c4ccccc4)c3)n2)C1` (stereo not shown) [Compound 21, 1-(3-((4-([1,1′-biphenyl]-3-yl)-5-chloropyrimidin-2-yl)amino)piperidin-1-yl)ethan-1-one] is greater than 6.30. `NC(=O)C1CCCC(Nc2ncc(Cl)c(-c3cccc(-c4ccccc4)c3)n2)C1` (stereo not shown) [Compound 22, 3-((4-([1,1′-biphenyl]-3-yl)-5-chloropyrimidin-2-yl)amino)cyclohexane-1-carboxamide]: the pIC50 is greater than 6.30. The figure for `CC(=O)N1CCC(Nc2ncc(Cl)c(-c3cccc(-c4ccccc4)c3)n2)CC1` [Compound 23, 1-(4-((4-([1,1′-biphenyl]-3-yl)-5-chloropyrimidin-2-yl)amino)piperidin-1-yl)ethan-1-one] is greater than 6.30; for `CC(=O)N1CCC(Nc2ncc(Cl)c(N3CCCCC3)n2)CC1` [Compound 24, 1-(4-((5-chloro-4-(piperidin-1-yl)pyrimidin-2-yl)amino)piperidin-1-yl)ethan-1-one] it is 5.30 to 6.00. The figure for `NC(=O)[C@H]1CC[C@@H](Nc2ncc(Cl)c(-c3ccc(F)cc3)n2)CC1` [Compound 25, cis-4-((5-chloro-4-(4-fluorophenyl)pyrimidin-2-yl)amino)cyclohexane-1-carboxamide] is 6.00 to 6.30. Consider `CC(=O)N1CCCC(Nc2ncc(Cl)c(-c3ccc(F)cc3)n2)C1` (stereo not shown) [Compound 26, 1-(3-((5-chloro-4-(4-fluorophenyl)pyrimidin-2-yl)amino)piperidin-1-yl)ethan-1-one], for which the pIC50 is 6.00 to 6.30. The result for `CC(=O)N1CCC(Nc2ncc(Cl)c(-c3ccc(F)cc3)n2)CC1` [Compound 27, 1-(4-((5-chloro-4-(4-fluorophenyl)pyrimidin-2-yl)amino)piperidin-1-yl)ethan-1-one] reads 6.00 to 6.30; that for `CC(=O)N1CCC[C@H](Nc2ncc(Cl)c(N3CCC(c4ccccn4)C3)n2)C1` (stereo partly drawn) [Compound 29, 1-((3S)-3-((5-chloro-4-(3-(pyridin-2-yl)pyrrolidin-1-yl)pyrimidin-2-yl)amino)piperidin-1-yl)ethan-1-one], 5.30 to 6.00; that for `CC(=O)N1CCC(Nc2ncc(Cl)c(C3CCN(c4ccccc4)C3)n2)CC1` (stereo not shown) [Compound 30, 1-(4-((5-chloro-4-(1-phenylpyrrolidin-3-yl)pyrimidin-2-yl)amino)piperidin-1-yl)ethan-1-one], greater than 6.30. The figure for `CC(=O)N[C@H]1CC[C@@H](Nc2ncc(Cl)c(-c3cccc(-c4ccccc4)c3)n2)CC1` [Compound 31, N-(cis-4-((4-([1,1′-biphenyl]-3-yl)-5-chloropyrimidin-2-yl)amino)cyclohexyl)acetamide] is 6.00 to 6.30; for `CC(=O)N[C@H]1CC[C@H](Nc2ncc(Cl)c(-c3cccc(-c4ccccc4)c3)n2)CC1` [Compound 32, N-(trans-4-((4-([1,1′-biphenyl]-3-yl)-5-chloropyrimidin-2-yl)amino)cyclohexyl)acetamide] it is greater than 6.30. The figure for `CC(=O)N1CCC[C@H](Nc2ncc(Cl)c(N3CCCC(c4ccccc4)C3)n2)C1` (stereo partly drawn) [Compound 35, 1-((3S)-3-((5-chloro-4-(3-phenylpiperidin-1-yl)pyrimidin-2-yl)amino)piperidin-1-yl) ethan-1-one] is greater than 6.30. As for `CC(=O)N1CCC[C@H](Nc2ncc(Cl)c(-c3cccc(N4CCCCC4)c3)n2)C1` [Compound 37, (S)-1-(3-((5-chloro-4-(3-(piperidin-1-yl)phenyl)pyrimidin-2-yl)amino)piperidin-1-yl)ethan-1-one], the pIC50 is greater than 6.30. In the case of `CC(=O)N1CCC[C@H](Nc2ncc(Cl)c(-c3cccc(C4CCCCC4)c3)n2)C1` [Compound 39, (S)-1-(3-((5-chloro-4-(3-cyclohexylphenyl)pyrimidin-2-yl)amino)piperidin-1-yl)ethan-1-one], the pIC50 was greater than 6.30. The figure for `NC(=O)C1CCCC(Nc2ncc(F)c(-c3cccc(-n4ccccc4=O)c3)n2)C1` (stereo not shown) [Compound 40, 3-[[5-fluoro-4-[3-(2-oxo-1-pyridyl)phenyl]pyrimidin-2-yl]amino]cyclohexanecarboxamide] is greater than 6.30.
